What all share (type): functional
One assay relates to SF-268. Briefly: Cytotoxicity against Homo sapiens (human) SF268 assessed as cell growth at 10^-4 M after 48 hr by Alamar Blue assay. To be noted: SF-268, 48 h, read-out: Activity. On the technique in general: Alamar Blue is a resazurin reagent that responds to reducing activity.
For another assay, the system named is MCF7. Briefly: Cytotoxicity against Homo sapiens (human) MCF7 assessed as cell growth at 10^-4 M after 48 hr by Alamar Blue assay. To be noted: MCF7, 48 h, read-out: Activity.
The next assay concerns NCI-H460. Description: Cytotoxicity against Homo sapiens (human) NCI-H460 assessed as cell growth at 10^-4 M after 48 hr by Alamar Blue assay. To be noted: NCI-H460, 48 h, read-out: Activity.

As to `Cc1ccc(C2=NOC3=c4ccccc4=CSC3=C2c2ccccc2)cc1`, the growth at 100 µM in the assay with SF-268 is 66%; in the assay with MCF7, 51%; in the assay with NCI-H460, 92%.

Consider `COc1ccc(C2=C3SC=c4ccccc4=C3ON=C2c2ccc(Cl)cc2)cc1`, for which the growth at 100 µM in the assay with SF-268 turned out to be 102%; in the assay on MCF7, 51%; with NCI-H460, 85%.

As for `Cc1ccc(C2=C3SC=c4ccccc4=C3ON=C2c2ccccc2)cc1`, the growth at 100 µM in the assay with SF-268 was 69%; in the assay on MCF7, 41%; in the assay on NCI-H460 it was 94%.

On to `COc1ccc(C2=NOC3=c4ccccc4=CSC3=C2c2ccc(C)cc2)cc1`, for which the growth at 100 µM with SF-268 was determined as 97%; in the assay on MCF7 it was 86%; with NCI-H460, 96%.

With `Cc1ccc(C2=C3SC=c4ccccc4=C3ON=C2c2ccc([N+](=O)[O-])cc2)cc1`, the growth at 100 µM in the assay with SF-268 is 83%; with MCF7, 97%; in the assay with NCI-H460, 99%.

For the compound `COc1ccc(C2=NOC3=c4ccccc4=CSC3=C2c2ccc(OC)cc2)cc1`, the growth at 100 µM in the assay on SF-268 was found to be 105%; in the assay on MCF7, 116%; in the assay with NCI-H460, 102%.

As for `COc1ccc(C2=NOC3=c4ccccc4=CSC3=C2c2ccccc2)cc1`, the results for the growth at 100 µM in the assay with SF-268, in the assay on MCF7 and in the assay on NCI-H460 were 106%, 97% and 101%, respectively.

Consider `Clc1ccc(C2=NOC3=c4ccccc4=CSC3=C2c2ccccc2)cc1`, for which the growth at 100 µM amounted to 95% with SF-268, 95% with MCF7 and 92% with NCI-H460.

Regarding `COc1ccc(C2=C3SC=c4ccccc4=C3ON=C2c2ccc(C)cc2)cc1`, the growth at 100 µM in the assay on SF-268 was determined as 103%; in the assay on MCF7 it was 98%; in the assay on NCI-H460, 84%.

Regarding `Cc1ccc(C2=NOC3=c4ccccc4=CSC3=C2c2ccc([N+](=O)[O-])cc2)cc1`, the figures for the growth at 100 µM with SF-268, in the assay on MCF7 and with NCI-H460 were 111%, 99% and 97%, respectively.

With `O=[N+]([O-])c1ccc(C2=NOC3=c4ccccc4=CSC3=C2c2ccccc2)cc1`, the growth at 100 µM with SF-268 was 101%; with MCF7 it was 62%; in the assay on NCI-H460, 100%.

As to `O=[N+]([O-])c1ccc(C2=C3SC=c4ccccc4=C3ON=C2c2ccc(Cl)cc2)cc1`, the growth at 100 µM turned out to be 104% in the assay with SF-268, 85% in the assay with MCF7 and 97% in the assay with NCI-H460.

Regarding `C1=c2ccccc2=C2ON=C(c3ccccc3)C(c3ccccc3)=C2S1`, the results for the growth at 100 µM in the assay with SF-268, with MCF7 and in the assay on NCI-H460 were 97%, 104% and 94%, respectively.

The record behind these values is ChEMBL document CHEMBL3046904, “Synthesis, characterization, bioactivity, and POM analyses of isothiochromeno[3,4-e][1,2]oxazines” (2013).
